What was measured:
[1] = system: naja naja (snake venom) phospholipase A2 -induced paw edema; experiment: Phospholipase A2-induced Paw Edema (PIPE); assay type: in vivo, rat; conditions: for PIPE (0.1 M), difference in edema vs. control: 0.1M test compound injected with PLA2 (3 units/paw) subplantar, rat left hindpaw, two hours post administration
Method: Phospholipase A2 -induced Paw Edema (PIPE)
The ability of compounds to prevent naja naja (snake venom) phospholipase A2 -induced paw edema in male Wistar rates (100-125 g) was measured. PLA2 (3 units/paw) alone or with 0.1M of the test compound was injected in the subplantar region of the rat left hindpaw. Immediately subsequent to the injection and at two hours post administration the paw was immersed in a mercury bath, and paw displacement was measured on a recorder via a transducer. […] See Giessler, A. J. et al., Agents and Actions, Vol. 10, Trends in Inflammation Research (1981), p. 195.

porcine pancreatic PLA2 = molecular target: T1, porcine pancreatic PLA2 (Sus scrofa, UniProt P00592); experiment: In Vitro Phospholipase A2 Assay (PLA2); assay type: biochemical; conditions: 0.01 M test compound; porcine pancreatic PLA2 3.2 units, pH 8.0, 37° C.; read-out: PLA2 (0.01 M), difference vs. control
T1 construct: from tissue; host or cells: porcine pancreas
Method: In Vitro Phospholipase A2 Assay (PLA2)
The ability of a compound to modulate PLA2 activity (cleavage of ^14 C-dipalmitoyl phosphotidylcholine at the 2-position to ^14 C-palmitic acid) was quantitated in this assay. The reaction mixture contained Tris buffer (25 mM), pH 8.0, calcium chloride (2.0 mM), bovine serum albumin (0.5 mg), dipalmitoyl phosphotidylcholine (8×10^-5M), (^14 C-palmitoyl)dipalmitoyl phosphotidylcholine (6×10^3cpm), porcine pancreatic PLA2 (3.2 units) and the test compound. The reaction was run at 37° C. in a shaking incubator. The reaction was quenched and an internal standard was added in order to determine sample recovery. The samples were loaded onto C18 columns, eluted with ethanol, and the radioactivity was then measured. […] See Feyen, J. H. M., et al., Journal of Chromatography 259 (1983), pp. 338-340.

T1 sequence (P00592 23-146): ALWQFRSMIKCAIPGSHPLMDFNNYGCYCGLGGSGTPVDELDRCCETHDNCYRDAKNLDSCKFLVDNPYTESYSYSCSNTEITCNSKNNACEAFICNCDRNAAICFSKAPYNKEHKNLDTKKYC

Row | SMILES | PIPE (0.1 M), difference in edema vs. control [1] | inhibition at 10000 µM (porcine pancreatic PLA2) | ED50 (PIPE standard) ([1]; standard, subplantar injection with PLA2, male Wistar rats)
1 | Nc1ccncc1Nc1cccc(O)c1 [3-[(4-Amino-3-pyridinyl)amino]phenol] | -52% | 35% | –
2 | Nc1ccncc1Nc1ccc(O)cc1.O=C(O)/C=C\C(=O)O [4-[(4-Amino-3-pyridinyl)amino]phenol maleate] | -62% | 35% | –
3 | C[C@]12CCC(=O)C=C1CC[C@@H]1[C@@H]2[C@@H](O)C[C@@]2(C)[C@H]1CC[C@]2(O)C(=O)CO [hydrocortisone, reference compound] | – | – | 0.46 M

Source: US4959378A, “Aminopyridinylaminophenol compounds useful as topical antiinflammatory agents for the treatment of skin disorders” (Hoechst-Roussel Pharmaceuticals Inc., priority 1989, dated 1990)
